Source: patent publication US20240376435A1, “KIDNEY ORGANOID AND METHOD FOR PRODUCING SAME” (OTSUKA PHARMACEUTICAL CO., LTD., priority 2021, published 2024)

Legend:
[1] = tested on: proximal tubule marker genes; experiment: Expression level of proximal tubule marker genes in kidney organoid (LTL MACS, quantitative PCR); assay type: cell-based, human; conditions: for expression levels of almost all proximal tubule marker genes: agonist singly at 1 μM, eight days from day 15, among Control, CP1 and 9cisRA1 groups; for expression levels of maturation markers of proximal tubular cells: ACE2, AQP6, CUBN
Protocol: (§1) The kidney organoid was transferred to a centrifuge tube, and a cell dissociation solution (DPBS (+), 5 mg/mL Bacillus Licheniformis Protease (Sigma-Aldrich), 125 U/mL DNasc (Roche)) was added to the centrifuge tube. Up to 12 organoids were placed in one centrifuge tube. The centrifuge tube was incubated at 6° C. for 30 minutes. During the 30-minute incubation, pipetting was performed every five minutes to prepare a cell suspension containing cells separated from the organoids. To 1 mL of the obtained cell suspension, 4 mL of ice-cold diluted solution A (DPBS (−), 0.5% FBS, 2 mM EDTA, 125 U/mL DNase) was added. The centrifuge tube containing the diluted cell suspension was centrifuged at 300 rcf and 4° C. for 10 minutes, and the supernatant was removed. An ice-cooled diluted solution A was added to the precipitate for resuspension. The cell suspension was centrifuged again and the precipitate was resuspended in the diluted solution A. The obtained cell suspension was transferred to a tube with a 35 μm filter (Falcon) and passed through the filter to prepare a cell suspension containing single cells.
LTL-biotin (1:50) was added to the prepared cell suspension containing single cells and incubated at 4° C. for 15 minutes. Thereafter, the cell suspension was centrifuged at 300 rcf and 4° C. for five minutes, and the supernatant was removed. An ice-cooled diluted solution A was added to the precipitate for resuspension. Centrifuging the cell suspension and obtaining a cell suspension from the precipitate were performed two more times. Anti-biotin microBeads Ultra-Pure was added to the obtained cell suspension in the diluted solution A and incubated at 4° C. for 15 minutes. Thereafter, the cell suspension was centrifuged at 300 ref and 4° C. for five minutes, and the supernatant was removed. The ice-cooled diluted solution A was added to the precipitate for resuspension. This operation was repeated two more times. From the obtained cell suspension in the diluted solution A, cells to which LTL binds (also referred to as LTL-binding cells or LTL-positive cells) were obtained by a MACS method. More specifically, the cell suspension was applied to an MS column (Miltenyi Biotec B.V. & Co. KG) fixed in a magnetic field, and LTL-positive proximal tubular cells were obtained as a positive fraction.
(§2) Total RNA was extracted from the obtained cell suspension containing LTL-positive proximal tubular cells with a Purelink RNA micro kit (Thermofisher Scientific Inc.). Using total RNA obtained as a template, cDNA synthesis was performed using PrimeScript™ RTmastermix (Perfect Real Time) (Takara Bio Inc.). The synthesized cDNA was quantified by real-time PCR with TB Green® Premix Ex Taq™ II (Tli RNase H Plus) (TaKaRa Bio Inc.). Expression level analysis was performed using this quantitative PCR.
On the 15th day of differentiation induction, the induction medium C was replaced with STEMdiff APEL2 medium (0.3 μM CP775146, 1 μM 9-cis retinoic acid, 1% PFHM II, Antibiotic-Antimycotic), and the obtained early kidney organoids were further cultured for eight days (until the 23rd day of differentiation induction).
On the 23rd day of differentiation induction, the degree of maturation of the proximal tubule was examined. The degree of maturation was determined based on the expression level of maturation markers of proximal tubular cells in the kidney organoid by the MACS method with LTL.
In the step C, CP1 group was prepared by culturing, for eight days, the kidney organoid on the 15th day of differentiation induction in STEMdiff APEL2 medium (1 μM CP775146, 1% PFHM II, Antibiotic-Antimycotic), which is a medium obtained by removing retinoic acid from the induction medium C. […]

[2] = tested on: PPARA downstream gene group; experiment: Expression level of PPARA downstream gene group in kidney organoid (LTL MACS, quantitative PCR); assay type: cell-based, human; conditions: agonist singly at 1 μM, eight days from day 15; among Control, CP1 and 9cisRA1 groups
Protocol: as §1, with “The cell suspension was centrifuged again and the precipitate was resuspended in the diluted solution A. The obtained cell suspension was transferred to a tube with a 35 μm filter (Falcon) and passed through the filter to prepare a cell suspension containing single cells.” left out
as §2, with “Using total RNA obtained as a template, cDNA synthesis was performed using PrimeScript™ RTmastermix (Perfect Real Time) (Takara Bio Inc.).” left out, “PCR. […]” for “PCR.”

SMILES	expression levels of almost all proximal tubule marker genes [1]	expression levels of almost all PPARA downstream gene groups [2]	also measured
CC1=C(/C=C/C(C)=C\C=C\C(C)=C\C(=O)O)C(C)(C)CCC1 [9-cis retinoic acid]	No significant difference	No significant difference	
CC(C)c1ccc(CC(=O)N2CCC[C@@H](c3cccc(OC(C)(C)C(=O)O)c3)C2)cc1 [CP775146]	No significant difference	No significant difference	
CCC(=O)NC[C@H](Cc1ccc(OCCc2nc(-c3ccccc3)oc2C)cc1)N/C(C)=C\C(=O)c1ccc(C(F)(F)F)cc1 [GW6471]			expression levels of maturation markers of proximal tubular cells ([1]; Comparative Example 1, PPARA antagonist at a predetermined concentration in step C, vs control, UGT2A3, AZGP1, BHMT, LRP2, ABCB1, APOA1, APOC3, FABP1): significantly decreased; expression levels of SLC39A4 and CYP27A1 ([1]; Comparative Example 1, PPARA antagonist in step C, vs control): tendency for the expression levels of SLC39A4 (FIG. 12c) and CYP27A1 (FIG. 12l) to decrease; expression levels of maturation markers of proximal tubular cells ([1]; Comparative Example 2, RXR antagonist in step C, vs control, UGT2A3, AZGP1, SLC39A4, BHMT, LRP2, ABCB1, APOA1, APOC3, CYP27A1, FABP1): significantly decreased
Cc1cccc(Nc2cc(Cl)nc(SCC(=O)O)n2)c1C [pirinic acid]			expression of proximal tubule markers ([1]; Example 9, pirinic acid alone in step C, n=3): increased
